Measured values as given in PubChem BioAssay (NCI).
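Assay format: 96-well plates, 48-hour exposure. Here, GI50 denotes the concentration required for 50% inhibition of growth. At the TGI there is no net growth.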 Where a SMILES comes first, the peptide text is derived from it. [ ]: non-standard residue; d: D form. The star is where a group is joined. dTle = CC(C)(C)[C@@H](N)C(=O)O; 4Abz = Nc1ccc(C(=O)O)cc1; NHOH = ON*

Assays:
Assay in all cases: DTP human tumour cell line panel, 48 h; in the data active = GI50 below about 0.43 µM; inactive = the rest
786-0 renal = test system: 786-0 renal
A498 renal = test system: A498 renal
A549 NSCLC = test system: A549 NSCLC
ACHN renal = test system: ACHN renal
CAKI-1 renal = test system: CAKI-1 renal
CCRF-CEM leukemia = test system: CCRF-CEM leukemia
COLO 205 colon = test system: COLO 205 colon
DU-145 prostate = test system: DU-145 prostate
EKVX NSCLC = test system: EKVX NSCLC
HCC-2998 colon = test system: HCC-2998 colon
HCT-116 colon = test system: HCT-116 colon
HCT-15 colon = test system: HCT-15 colon
HOP-62 NSCLC = test system: HOP-62 NSCLC
HOP-92 NSCLC = test system: HOP-92 NSCLC
HS 578T breast = test system: HS 578T breast
HT29 colon = test system: HT29 colon
IGROV1 ovarian = test system: IGROV1 ovarian
K-562 leukemia = test system: K-562 leukemia
KM12 colon = test system: KM12 colon
LOX IMVI melanoma = test system: LOX IMVI melanoma
M14 melanoma = test system: M14 melanoma
MALME-3M melanoma = test system: MALME-3M melanoma
MCF7 breast = test system: MCF7 breast
MDA-MB-231 breast = test system: MDA-MB-231 breast
MDA-MB-435 = test system: MDA-MB-435
MOLT-4 leukemia = test system: MOLT-4 leukemia
NCI-H226 lung = test system: NCI-H226 lung
NCI-H23 lung = test system: NCI-H23 lung
NCI-H460 lung = test system: NCI-H460 lung
NCI-H522 lung = test system: NCI-H522 lung
NCI/ADR-RES ovarian = test system: NCI/ADR-RES ovarian
OVCAR-3 ovarian = test system: OVCAR-3 ovarian
OVCAR-4 ovarian = test system: OVCAR-4 ovarian
OVCAR-5 ovarian = test system: OVCAR-5 ovarian
OVCAR-8 ovarian = test system: OVCAR-8 ovarian
PC-3 prostate = test system: PC-3 prostate
RPMI-8226 leukemia = test system: RPMI-8226 leukemia
RXF 393 renal = test system: RXF 393 renal
SF-268 CNS = test system: SF-268 CNS
SF-295 CNS = test system: SF-295 CNS
SF-539 CNS = test system: SF-539 CNS
SK-MEL-2 melanoma = test system: SK-MEL-2 melanoma
SK-MEL-28 melanoma = test system: SK-MEL-28 melanoma
SK-MEL-5 melanoma = test system: SK-MEL-5 melanoma
SK-OV-3 ovarian = test system: SK-OV-3 ovarian
SN12C renal = test system: SN12C renal
SNB-19 CNS = test system: SNB-19 CNS
SNB-75 CNS = test system: SNB-75 CNS
SR leukemia = test system: SR leukemia
SW-620 colon = test system: SW-620 colon
T-47D breast = test system: T-47D breast
TK-10 renal = test system: TK-10 renal
U251 CNS = test system: U251 CNS
UACC-257 melanoma = test system: UACC-257 melanoma
UACC-62 melanoma = test system: UACC-62 melanoma
UO-31 renal = test system: UO-31 renal
BT-549 breast = test system: BT-549 breast
HL-60(TB) leukemia = test system: HL-60(TB) leukemia

COC1(OC)C=CC2C1C1C=CC2C1(OC)OC (stereo not drawn)
> 100 µM: TGI (786-0 renal) | TGI (A498 renal) | TGI (A549 NSCLC) | TGI (ACHN renal) | TGI (CAKI-1 renal) | TGI (CCRF-CEM leukemia) | TGI (COLO 205 colon) | TGI (DU-145 prostate) | TGI (EKVX NSCLC) | TGI (HCC-2998 colon) | TGI (HCT-116 colon) | TGI (HCT-15 colon) | TGI (HOP-62 NSCLC) | TGI (HOP-92 NSCLC) | TGI (HS 578T breast) | TGI (HT29 colon) | TGI (IGROV1 ovarian) | TGI (K-562 leukemia) | TGI (KM12 colon) | TGI (LOX IMVI melanoma) | TGI (M14 melanoma) | TGI (MALME-3M melanoma) | TGI (MCF7 breast) | TGI (MDA-MB-231 breast) | TGI (MDA-MB-435) | TGI (MOLT-4 leukemia) | TGI (NCI-H226 lung) | TGI (NCI-H23 lung) | TGI (NCI-H460 lung) | TGI (NCI-H522 lung) | TGI (NCI/ADR-RES ovarian) | TGI (OVCAR-3 ovarian) | TGI (OVCAR-4 ovarian) | TGI (OVCAR-5 ovarian) | TGI (OVCAR-8 ovarian) | TGI (PC-3 prostate) | TGI (RPMI-8226 leukemia) | TGI (RXF 393 renal) | TGI (SF-268 CNS) | TGI (SF-295 CNS) | TGI (SF-539 CNS) | TGI (SK-MEL-2 melanoma) | TGI (SK-MEL-28 melanoma) | TGI (SK-MEL-5 melanoma) | TGI (SK-OV-3 ovarian) | TGI (SN12C renal) | TGI (SNB-19 CNS) | TGI (SNB-75 CNS) | TGI (SR leukemia) | TGI (SW-620 colon) | TGI (T-47D breast) | TGI (TK-10 renal) | TGI (U251 CNS) | TGI (UACC-257 melanoma) | TGI (UACC-62 melanoma) | TGI (UO-31 renal)

C[C@@H](NC(=O)[C@H](NC(=O)[C@@H]1CCCN1C(=O)CNC(=O)c1ccc(N)cc1)C(C)(C)C)C(=O)NO (H-[4Abz]GP[dTle][dA]-{NHOH})
inactive: GI50 (786-0 renal) > 100 µM | GI50 (A498 renal) > 100 µM | GI50 (A549 NSCLC) > 100 µM | GI50 (ACHN renal) > 100 µM | GI50 (BT-549 breast) > 100 µM | GI50 (CAKI-1 renal) > 100 µM | GI50 (COLO 205 colon) > 100 µM | GI50 (DU-145 prostate) > 100 µM | GI50 (EKVX NSCLC) > 100 µM | GI50 (HCC-2998 colon) > 100 µM | GI50 (HCT-116 colon) > 100 µM | GI50 (HCT-15 colon) > 100 µM | GI50 (HOP-62 NSCLC) > 100 µM | GI50 (HOP-92 NSCLC) 5.76 µM | GI50 (HS 578T breast) > 100 µM | GI50 (HT29 colon) > 100 µM | GI50 (IGROV1 ovarian) > 100 µM | GI50 (K-562 leukemia) > 100 µM | GI50 (KM12 colon) > 100 µM | GI50 (LOX IMVI melanoma) > 100 µM | GI50 (M14 melanoma) > 100 µM | GI50 (MALME-3M melanoma) > 100 µM | GI50 (MCF7 breast) > 100 µM | GI50 (MDA-MB-231 breast) > 100 µM | GI50 (MDA-MB-435) > 100 µM | GI50 (MOLT-4 leukemia) > 100 µM | GI50 (NCI-H226 lung) > 100 µM | GI50 (NCI-H23 lung) > 100 µM | GI50 (NCI-H460 lung) > 100 µM | GI50 (NCI-H522 lung) > 100 µM | GI50 (NCI/ADR-RES ovarian) > 100 µM | GI50 (OVCAR-3 ovarian) > 100 µM | GI50 (OVCAR-4 ovarian) > 100 µM | GI50 (OVCAR-5 ovarian) > 100 µM | GI50 (OVCAR-8 ovarian) > 100 µM | GI50 (PC-3 prostate) > 100 µM | GI50 (SF-268 CNS) > 100 µM | GI50 (SF-295 CNS) > 100 µM | GI50 (SF-539 CNS) > 100 µM | GI50 (SK-MEL-2 melanoma) > 100 µM | GI50 (SK-MEL-28 melanoma) > 100 µM | GI50 (SK-MEL-5 melanoma) > 100 µM | GI50 (SK-OV-3 ovarian) > 100 µM | GI50 (SN12C renal) > 100 µM | GI50 (SNB-19 CNS) > 100 µM | GI50 (SNB-75 CNS) > 100 µM | GI50 (SW-620 colon) > 100 µM | GI50 (T-47D breast) > 100 µM | GI50 (TK-10 renal) > 100 µM | GI50 (U251 CNS) > 100 µM | GI50 (UACC-257 melanoma) > 100 µM | GI50 (UACC-62 melanoma) > 100 µM | GI50 (UO-31 renal) > 100 µM
> 100 µM: TGI (786-0 renal) | TGI (A498 renal) | TGI (A549 NSCLC) | TGI (ACHN renal) | TGI (BT-549 breast) | TGI (CAKI-1 renal) | TGI (COLO 205 colon) | TGI (DU-145 prostate) | TGI (EKVX NSCLC) | TGI (HCC-2998 colon) | TGI (HCT-116 colon) | TGI (HCT-15 colon) | TGI (HOP-62 NSCLC) | TGI (HOP-92 NSCLC) | TGI (HS 578T breast) | TGI (HT29 colon) | TGI (IGROV1 ovarian) | TGI (K-562 leukemia) | TGI (KM12 colon) | TGI (LOX IMVI melanoma) | TGI (M14 melanoma) | TGI (MALME-3M melanoma) | TGI (MCF7 breast) | TGI (MDA-MB-231 breast) | TGI (MDA-MB-435) | TGI (MOLT-4 leukemia) | TGI (NCI-H226 lung) | TGI (NCI-H23 lung) | TGI (NCI-H460 lung) | TGI (NCI-H522 lung) | TGI (NCI/ADR-RES ovarian) | TGI (OVCAR-3 ovarian) | TGI (OVCAR-4 ovarian) | TGI (OVCAR-5 ovarian) | TGI (OVCAR-8 ovarian) | TGI (PC-3 prostate) | TGI (SF-268 CNS) | TGI (SF-295 CNS) | TGI (SF-539 CNS) | TGI (SK-MEL-2 melanoma) | TGI (SK-MEL-28 melanoma) | TGI (SK-MEL-5 melanoma) | TGI (SK-OV-3 ovarian) | TGI (SN12C renal) | TGI (SNB-19 CNS) | TGI (SNB-75 CNS) | TGI (SW-620 colon) | TGI (T-47D breast) | TGI (TK-10 renal) | TGI (U251 CNS) | TGI (UACC-257 melanoma) | TGI (UACC-62 melanoma) | TGI (UO-31 renal)

CCN(CC)Cc1ccc(C(=S)Nc2ccc(C)cc2)s1
28.7 µM: TGI (HCT-116 colon)
37.4 µM: TGI (T-47D breast)
41.6 µM: TGI (MOLT-4 leukemia)
31.3 µM: TGI (PC-3 prostate)
35.3 µM: TGI (OVCAR-8 ovarian)
46.8 µM: TGI (RPMI-8226 leukemia)
71 µM: TGI (OVCAR-4 ovarian)
30.2 µM: TGI (LOX IMVI melanoma) | TGI (SK-MEL-2 melanoma)
30.5 µM: TGI (SK-MEL-28 melanoma)
56.7 µM: TGI (DU-145 prostate)
34.7 µM: TGI (SNB-19 CNS)
26.2 µM: TGI (IGROV1 ovarian)
36.1 µM: TGI (A549 NSCLC)
40.2 µM: TGI (BT-549 breast)
27 µM: TGI (HL-60(TB) leukemia)
45.3 µM: TGI (SW-620 colon)
37.7 µM: TGI (SF-539 CNS)
26.4 µM: TGI (K-562 leukemia)
28.1 µM: TGI (UACC-62 melanoma)
37.6 µM: TGI (SR leukemia)
30.8 µM: TGI (CCRF-CEM leukemia) | TGI (NCI-H460 lung)
30 µM: TGI (U251 CNS)
32.3 µM: TGI (HCT-15 colon)
32.5 µM: TGI (MALME-3M melanoma)
29.5 µM: TGI (OVCAR-5 ovarian)
35.2 µM: TGI (EKVX NSCLC)
14.4 µM: TGI (HT29 colon)
70.9 µM: TGI (OVCAR-3 ovarian)
29.1 µM: TGI (786-0 renal)
28.9 µM: TGI (M14 melanoma) | TGI (NCI-H522 lung) | TGI (UO-31 renal)
16.7 µM: TGI (HS 578T breast)
31.7 µM: TGI (COLO 205 colon)
4.42 µM: TGI (SF-268 CNS)
26.5 µM: TGI (MDA-MB-435) | TGI (NCI-H23 lung) | TGI (SK-MEL-5 melanoma)
29.6 µM: TGI (CAKI-1 renal)
27.2 µM: TGI (A498 renal)
28.3 µM: TGI (SF-295 CNS)
31.1 µM: TGI (SK-OV-3 ovarian)
24.1 µM: TGI (UACC-257 melanoma)
51.9 µM: TGI (NCI/ADR-RES ovarian)
34.5 µM: TGI (HOP-62 NSCLC)
25.6 µM: TGI (HCC-2998 colon)
39 µM: TGI (ACHN renal)
25.1 µM: TGI (MCF7 breast)
31 µM: TGI (KM12 colon)
